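A five-concentration, 48-hour dose response in 96-well plates underlies each endpoint, interpolated linearly between surrounding concentrations. GI50 = concentration required for 50% inhibition of growth. TGI: concentration producing complete growth inhibition.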
Experiments:
Experiment in all cases: NCI anticancer screen, dose series, 48 h
NCI-H522 lung = test system: NCI-H522 lung
OVCAR-5 ovarian = test system: OVCAR-5 ovarian
BT-549 breast = test system: BT-549 breast
M14 melanoma = test system: M14 melanoma
KM12 colon = test system: KM12 colon
SF-268 CNS = test system: SF-268 CNS
NCI-H226 lung = test system: NCI-H226 lung
SF-295 CNS = test system: SF-295 CNS
HCT-15 colon = test system: HCT-15 colon
HT29 colon = test system: HT29 colon
UACC-62 melanoma = test system: UACC-62 melanoma
T-47D breast = test system: T-47D breast
SNB-19 CNS = test system: SNB-19 CNS
IGROV1 ovarian = test system: IGROV1 ovarian
SK-MEL-28 melanoma = test system: SK-MEL-28 melanoma
HOP-62 NSCLC = test system: HOP-62 NSCLC
RPMI-8226 leukemia = test system: RPMI-8226 leukemia
UO-31 renal = test system: UO-31 renal
CCRF-CEM leukemia = test system: CCRF-CEM leukemia
NCI-H23 lung = test system: NCI-H23 lung
MCF7 breast = test system: MCF7 breast
OVCAR-4 ovarian = test system: OVCAR-4 ovarian
HS 578T breast = test system: HS 578T breast
ACHN renal = test system: ACHN renal
NCI/ADR-RES ovarian = test system: NCI/ADR-RES ovarian
SR leukemia = test system: SR leukemia
OVCAR-8 ovarian = test system: OVCAR-8 ovarian
DU-145 prostate = test system: DU-145 prostate
MOLT-4 leukemia = test system: MOLT-4 leukemia
SK-MEL-2 melanoma = test system: SK-MEL-2 melanoma
K-562 leukemia = test system: K-562 leukemia
COLO 205 colon = test system: COLO 205 colon
TK-10 renal = test system: TK-10 renal
HL-60(TB) leukemia = test system: HL-60(TB) leukemia
SNB-75 CNS = test system: SNB-75 CNS
PC-3 prostate = test system: PC-3 prostate
HOP-92 NSCLC = test system: HOP-92 NSCLC
SN12C renal = test system: SN12C renal
NCI-H460 lung = test system: NCI-H460 lung
MDA-MB-435 = test system: MDA-MB-435
HCT-116 colon = test system: HCT-116 colon
SK-OV-3 ovarian = test system: SK-OV-3 ovarian
MDA-MB-231 breast = test system: MDA-MB-231 breast
CAKI-1 renal = test system: CAKI-1 renal
A498 renal = test system: A498 renal
U251 CNS = test system: U251 CNS
HCC-2998 colon = test system: HCC-2998 colon
MALME-3M melanoma = test system: MALME-3M melanoma
786-0 renal = test system: 786-0 renal
SW-620 colon = test system: SW-620 colon
A549 NSCLC = test system: A549 NSCLC
RXF 393 renal = test system: RXF 393 renal
UACC-257 melanoma = test system: UACC-257 melanoma
EKVX NSCLC = test system: EKVX NSCLC
SK-MEL-5 melanoma = test system: SK-MEL-5 melanoma
SF-539 CNS = test system: SF-539 CNS

For `Fc1ccc(-c2cc3nc(C(Cl)Cl)nc(-c4cccs4)n3n2)cc1`, the GI50 (NCI-H522 lung) was > 100 µM, the TGI (NCI-H522 lung) was > 100 µM and the GI50 (OVCAR-5 ovarian) was 1750 nM. For the same molecule, the TGI (OVCAR-5 ovarian) was 5.31 µM, the GI50 (BT-549 breast) was > 100 µM and the TGI (BT-549 breast) was > 100 µM. The GI50 (M14 melanoma) was 4.5 µM, the TGI (M14 melanoma) was > 100 µM and the GI50 (KM12 colon) was 2200 nM. For the same molecule, the TGI (KM12 colon) was 17.5 µM, the GI50 (SF-268 CNS) was 1610 nM and the TGI (SF-268 CNS) was 7.99 µM. For the same molecule, the GI50 (NCI-H226 lung) was > 100 µM, the TGI (NCI-H226 lung) was > 100 µM and the GI50 (SF-295 CNS) was 949 nM. The TGI (SF-295 CNS) was 4.79 µM, the GI50 (HCT-15 colon) was 1100 nM and the TGI (HCT-15 colon) was 3.71 µM. The GI50 (HT29 colon) was 356 nM, the TGI (HT29 colon) was 2050 nM and the GI50 (UACC-62 melanoma) was 2710 nM. It also gave a TGI (UACC-62 melanoma) of 15 µM, a GI50 (T-47D breast) of 1600 nM and a TGI (T-47D breast) of 7.24 µM. The GI50 (SNB-19 CNS) was 664 nM, the TGI (SNB-19 CNS) was 4.4 µM and the GI50 (IGROV1 ovarian) was 3.07 µM. The TGI (IGROV1 ovarian) was > 100 µM, the GI50 (SK-MEL-28 melanoma) was 1860 nM and the TGI (SK-MEL-28 melanoma) was 3.59 µM. The GI50 (HOP-62 NSCLC) was 454 nM, the TGI (HOP-62 NSCLC) was 3.46 µM and the GI50 (RPMI-8226 leukemia) was 847 nM. For the same molecule, the TGI (RPMI-8226 leukemia) was 5.79 µM, the GI50 (UO-31 renal) was 1260 nM and the TGI (UO-31 renal) was 5.5 µM. For the same molecule, the GI50 (CCRF-CEM leukemia) was 19.6 µM, the TGI (CCRF-CEM leukemia) was > 100 µM and the GI50 (NCI-H23 lung) was 1470 nM. It also gave a TGI (NCI-H23 lung) of 4 µM, a GI50 (MCF7 breast) of 369 nM and a TGI (MCF7 breast) of 4.31 µM. For the same molecule, the GI50 (OVCAR-4 ovarian) was 2390 nM, the TGI (OVCAR-4 ovarian) was 6.22 µM and the GI50 (HS 578T breast) was 1950 nM. The TGI (HS 578T breast) was 7.03 µM, the GI50 (ACHN renal) was 301 nM and the TGI (ACHN renal) was 1210 nM. It also gave a GI50 (NCI/ADR-RES ovarian) of 1170 nM, a TGI (NCI/ADR-RES ovarian) of 5.66 µM and a GI50 (SR leukemia) of 3.7 µM. The TGI (SR leukemia) was > 100 µM, the GI50 (OVCAR-8 ovarian) was 1210 nM and the TGI (OVCAR-8 ovarian) was > 100 µM. The GI50 (DU-145 prostate) was 310 nM, the TGI (DU-145 prostate) was 888 nM and the GI50 (MOLT-4 leukemia) was 3.56 µM. The TGI (MOLT-4 leukemia) was > 100 µM, the GI50 (SK-MEL-2 melanoma) was 3.1 µM and the TGI (SK-MEL-2 melanoma) was 9.66 µM. For the same molecule, the GI50 (K-562 leukemia) was 2530 nM, the TGI (K-562 leukemia) was > 100 µM and the GI50 (COLO 205 colon) was 805 nM. It also gave a TGI (COLO 205 colon) of 3.12 µM, a GI50 (TK-10 renal) of 3.14 µM and a TGI (TK-10 renal) of 6.88 µM. For the same molecule, the GI50 (HL-60(TB) leukemia) was 290 nM, the TGI (HL-60(TB) leukemia) was 2230 nM and the GI50 (SNB-75 CNS) was 284 nM. For the same molecule, the TGI (SNB-75 CNS) was 2810 nM, the GI50 (PC-3 prostate) was 1190 nM and the TGI (PC-3 prostate) was 4.67 µM. The GI50 (HOP-92 NSCLC) was 537 nM, the TGI (HOP-92 NSCLC) was 2960 nM and the GI50 (SN12C renal) was 36.1 µM. The TGI (SN12C renal) was > 100 µM, the GI50 (NCI-H460 lung) was 309 nM and the TGI (NCI-H460 lung) was 1190 nM. For the same molecule, the GI50 (MDA-MB-435) was 1630 nM, the TGI (MDA-MB-435) was 3.45 µM and the GI50 (HCT-116 colon) was 1530 nM. For the same molecule, the TGI (HCT-116 colon) was > 100 µM, the GI50 (SK-OV-3 ovarian) was 2210 nM and the TGI (SK-OV-3 ovarian) was 13.8 µM. The GI50 (MDA-MB-231 breast) was 505 nM, the TGI (MDA-MB-231 breast) was 3.1 µM and the GI50 (CAKI-1 renal) was 1220 nM. For the same molecule, the TGI (CAKI-1 renal) was 5.04 µM, the GI50 (A498 renal) was 1020 nM and the TGI (A498 renal) was 2360 nM. The GI50 (U251 CNS) was 319 nM, the TGI (U251 CNS) was 1980 nM and the GI50 (HCC-2998 colon) was 410 nM. For the same molecule, the TGI (HCC-2998 colon) was 1590 nM, the GI50 (MALME-3M melanoma) was 7.5 µM and the TGI (MALME-3M melanoma) was > 100 µM. It also gave a GI50 (786-0 renal) of 2310 nM, a TGI (786-0 renal) of 7.33 µM and a GI50 (SW-620 colon) of 1180 nM. It also gave a TGI (SW-620 colon) of 8.61 µM, a GI50 (A549 NSCLC) of 745 nM and a TGI (A549 NSCLC) of 4.92 µM. For the same molecule, the GI50 (RXF 393 renal) was 403 nM, the TGI (RXF 393 renal) was 1710 nM and the GI50 (UACC-257 melanoma) was 3.04 µM. For the same molecule, the TGI (UACC-257 melanoma) was 9.15 µM, the GI50 (EKVX NSCLC) was 1120 nM and the TGI (EKVX NSCLC) was 4.07 µM. The GI50 (SK-MEL-5 melanoma) was > 100 µM, the TGI (SK-MEL-5 melanoma) was > 100 µM and the GI50 (SF-539 CNS) was 1050 nM. For the same molecule, the TGI (SF-539 CNS) was 2890 nM.
